Test results: US20160090556A1, “PRODUCTS COMPRISING MALODOR REDUCTION MATERIALS” (The Procter & Gamble Company, priority 2014, published 2016)

Legend:
[1] = Liquid dish neat product liquid-air partition coefficient; assay type: physicochemical; details: for Comment Code: Log of liquid dish neat product liquid-air partition coefficient: code letters K, L
[2] = Probability of Ingredient Color Instability; assay type: physicochemical

Structure (SMILES) | Log of liquid dish neat product liquid-air partition coefficient (Comment Code K/L) [1] | Comment Code: Log of liquid dish neat product liquid-air partition coefficient [1] | Probability of Ingredient Color Instability (Comment Code E/F) [2]
CC1=C2CCC3(C)OC3C2C(C)(C)CCC1 (stereo not shown) [Material 624] | K (Log of liquid dish neat product liquid-air partition coefficient greater than or equal to −7) | K (Log of liquid dish neat product liquid-air partition coefficient greater than or equal to −7) | F (Probability of Ingredient Color Instability<71%)
CC(C)=CCCC(C)(O)C1CC=C(C)CC1 (stereo not shown) [Material 718] | K (Log of liquid dish neat product liquid-air partition coefficient greater than or equal to −7) | – | F (Probability of Ingredient Color Instability<71%)
CC(C)=CCCC1=CCC(C)(C=O)CC1 (stereo not shown) [Material 727] | K (Log of liquid dish neat product liquid-air partition coefficient greater than or equal to −7) | – | F (Probability of Ingredient Color Instability<71%)
CC(C)CCCC(C)CCCC(C)C=O (stereo not shown) [Material 741] | K (Log of liquid dish neat product liquid-air partition coefficient greater than or equal to −7) | – | F (Probability of Ingredient Color Instability<71%)
CC(C)=CCCC(C)CCCC(C)C=O (stereo not shown) [Material 757] | K (Log of liquid dish neat product liquid-air partition coefficient greater than or equal to −7) | – | F (Probability of Ingredient Color Instability<71%)
CC1(C)C2CC=C(CCC=O)C1C2 (stereo not shown) [Material 781] | K (Log of liquid dish neat product liquid-air partition coefficient greater than or equal to −7) | – | F (Probability of Ingredient Color Instability<71%)
CCCCCCCCCC=CC=O [Material 806] | K (Log of liquid dish neat product liquid-air partition coefficient greater than or equal to −7) | – | F (Probability of Ingredient Color Instability<71%)
CC(CC=O)CCc1ccccc1 (stereo not shown) [Material 807] | K (Log of liquid dish neat product liquid-air partition coefficient greater than or equal to −7) | – | F (Probability of Ingredient Color Instability<71%)
CC(C)c1ccc(CCC=O)cc1 [Material 826] | K (Log of liquid dish neat product liquid-air partition coefficient greater than or equal to −7) | – | F (Probability of Ingredient Color Instability<71%)
CC1=C2CC(C(C)(C)O)CCC2(C)CCC1 (stereo not shown) [Material 872] | K (Log of liquid dish neat product liquid-air partition coefficient greater than or equal to −7) | K (Log of liquid dish neat product liquid-air partition coefficient greater than or equal to −7) | F (Probability of Ingredient Color Instability<71%)
CCCCCCCC/C=C\CC=O [Material 884] | K (Log of liquid dish neat product liquid-air partition coefficient greater than or equal to −7) | – | F (Probability of Ingredient Color Instability<71%)
CC1CCC2(O1)C(C)(C)CCCC2(C)O (stereo not shown) [Material 893] | K (Log of liquid dish neat product liquid-air partition coefficient greater than or equal to −7) | – | F (Probability of Ingredient Color Instability<71%)
C/C=C/c1cc(OC)c(OC)cc1OC [Material 924] | K (Log of liquid dish neat product liquid-air partition coefficient greater than or equal to −7) | – | F (Probability of Ingredient Color Instability<71%)
